Earlier results as cited in US11813289B2, “Encapsulated antimicrobials and related methods of treatment” (ADVANTAGE SILVER DENTAL ARREST, LLC, priority 2018, dated 2023).

Test system: dentinal caries lesions
Settings: lesions that had progressed into the dentin

For silver diamine fluoride [SDF], which “dentinal caries lesions arrested after treatment” value is on record?
The value was “two-thirds”.
